Reference: patent publication US7928134B2, “5-aryl-4,5-dihydro-(1H)-pyrazolines as cannabinoid CB1 receptor agonists” (Solvay Pharmaceuticals B.V., priority 2007, dated 2011)

Key:
[1] = target: T1, human CB1 receptor (Homo sapiens, UniProt P21554); assay: In vitro cannabinoid-CB1 receptor (ant)agonism ([3H]-arachidonic acid release in CHO cells); assay type: cell-based; conditions: human CB1 receptor cloned in CHO cells; for EC50: read-out: Functional CB1 assays Human CB1 agonism pEC50 (converted)
T1 construct: expressed in transfected cells; host or cells: CHO cells
Method: In Vitro Cannabinoid-CB1 Receptor (Ant)Agonism
In vitro CB1 receptor antagonism/agonism can be assessed with the human CB1 receptor cloned in CHO cells. CHO cells are grown in a Dulbecco's Modified Eagle's medium (DMEM) culture medium, supplemented with 10% heat-inactivated fetal calf serum. Medium is aspirated and replaced by DMEM, without fetal calf serum, but containing [^3H]-arachidonic acid and incubated overnight in a cell culture stove (5% CO2/95% air; 37° C.; water-saturated atmosphere). During this period [^3H]-arachidonic acid is incorporated in membrane phospholipids. On the test day, medium is aspirated and cells are washed three times using 0.5 ml DMEM, containing 0.2% bovine serum albumin (BSA). CB1 agonist stimulation leads to activation of PLA2 followed by release of [^3H]-arachidonic acid into the medium. This CB1 agonist-induced release is concentration-dependently antagonized by CB1 receptor antagonists, such as for example rimonabant.

[2] = target: T2, human cannabinoid CB2 receptor (Homo sapiens, UniProt P34972); assay: In vitro affinity for cannabinoid-CB2 receptors ([3H]CP-55,940 radioligand binding); conditions: membranes of CHO cells stably transfected with human CB2, read-out: receptor binding Human CB2 affinity pKi (converted)
T2 construct: expressed in transfected cells; host or cells: CHO cells, membrane preparations
Method: In Vitro Affinity for Cannabinoid-CB2 Receptors
(§1) The affinity of the compounds of the invention for cannabinoid CB2 receptors can be determined using membrane preparations of CHO cells in which the human cannabinoid CB2 receptor is stably transfected in conjunction with [^3H]CP-55,940 as radioligand. After incubation of a freshly prepared cell membrane preparation with the [^3H]-ligand, with or without addition of one or more compounds of the invention, separation of bound and free ligand is performed by filtration over glassfiber filters. Radioactivity on the filter is measured by liquid scintillation counting.

[3] = target: T3, human cannabinoid CB1 receptor (Homo sapiens, UniProt P21554); assay: In vitro affinity for cannabinoid-CB1 receptors ([3H]CP-55,940 radioligand binding); conditions: membranes of CHO cells stably transfected with human CB1, read-out: receptor binding Human CB1 affinity pKi (converted)
T3 construct: expressed in transfected cells; host or cells: Chinese hamster ovary (CHO) cells, membrane preparations
Method: In Vitro Affinity for Cannabinoid-CB1 Receptors
as §1, with “CB1” for “CB2”, “Chinese hamster ovary (CHO)” for “CHO”

T2 sequence (P34972 whole entry): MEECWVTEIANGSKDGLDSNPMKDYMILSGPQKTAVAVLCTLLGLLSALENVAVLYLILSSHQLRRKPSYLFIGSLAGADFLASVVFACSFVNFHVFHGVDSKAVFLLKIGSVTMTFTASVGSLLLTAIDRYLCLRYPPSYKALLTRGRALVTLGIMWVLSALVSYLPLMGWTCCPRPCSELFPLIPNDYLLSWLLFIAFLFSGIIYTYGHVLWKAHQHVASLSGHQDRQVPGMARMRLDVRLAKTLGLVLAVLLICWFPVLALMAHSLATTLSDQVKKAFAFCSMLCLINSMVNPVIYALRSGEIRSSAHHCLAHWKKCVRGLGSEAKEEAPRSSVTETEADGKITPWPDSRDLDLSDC
T3 sequence (P21554 whole entry): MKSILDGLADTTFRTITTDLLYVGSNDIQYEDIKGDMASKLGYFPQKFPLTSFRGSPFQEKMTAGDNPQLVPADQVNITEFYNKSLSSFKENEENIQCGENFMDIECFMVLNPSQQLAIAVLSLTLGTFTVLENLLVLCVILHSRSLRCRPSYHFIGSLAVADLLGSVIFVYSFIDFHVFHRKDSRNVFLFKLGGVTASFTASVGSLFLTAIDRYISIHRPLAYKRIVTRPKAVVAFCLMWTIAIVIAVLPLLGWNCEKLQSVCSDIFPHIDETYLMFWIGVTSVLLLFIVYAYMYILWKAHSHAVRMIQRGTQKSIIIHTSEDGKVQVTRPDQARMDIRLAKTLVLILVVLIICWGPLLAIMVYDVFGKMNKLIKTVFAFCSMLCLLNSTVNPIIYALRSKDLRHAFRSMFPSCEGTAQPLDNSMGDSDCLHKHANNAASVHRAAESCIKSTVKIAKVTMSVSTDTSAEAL
T1 sequence (P21554 whole entry): as above

| Compound | EC50 [1] [nM] | Ki [2] [nM] | Ki [3] [nM] | Functional CB1 assays Human CB1 agonism pEC50 [1] |
| --- | --- | --- | --- | --- |
| CCCCCN1N=C(C(=O)NC(C)c2ccccc2)CC1c1ccccc1 (mixture of isomers) [Compound 14, N-(1-Phenyl-ethyl)-1-(n-pentyl)-5-phenyl-4,5-dihydro-(1H)-pyrazole-3-carboxamide] | 501 | 251 | 31.6 | – |
| CCCCCN1N=C(C(=O)NCc2cccc(C(F)(F)F)c2)CC1c1ccccc1 (racemic) [Compound 22] | 79.4 | 316 | 63.1 | – |
| CCCCN1N=C(C(=O)NC(C)(C)c2ccccc2)[C@@H](C)[C@@H]1c1ccccc1 (relative stereo) [Compound 37, N-(1-Phenyl-1-methyl-ethyl)-1-(n-butyl)-trans-4-methyl-5-phenyl-4,5-dihydro-(1H)-pyrazole-3-carboxamide] | 7.94 | 100 | 15.8 | – |
| CCCCCN1N=C(C(=O)NC2C3CC4CC(C3)CC2C4)CC1c1ccccc1 (stereo not drawn) [Compound 1, N-(Adamant-2-yl)-1-(n-pentyl)-5-phenyl-4,5-dihydro-(1H)-pyrazole-3-carboxamide] | – | 5.01 | 7.94 | 8.1 |
| CCCCCN1N=C(C(=O)Nc2cccc3ccccc23)CC1c1ccccc1 (stereo not drawn) [Compound 4, N-(Napht-1-yl)-1-(n-pentyl)-5-phenyl-4,5-dihydro-(1H)-pyrazole-3-carboxamide] | 39.8 | 79.4 | 31.6 | – |
| CCCCCN1N=C(C(=O)NCc2cccnc2)CC1c1ccccc1 (stereo not drawn) [Compound 7, N-(Pyridin-3-ylmethyl)-1-(n-pentyl)-5-phenyl-4,5-dihydro-(1H)-pyrazole-3-carboxamide] | 631 | 501 | 126 | – |
| CCCCCN1N=C(C(=O)NC2CC3CCC2C3)CC1c1ccccc1 (stereo not drawn) [Compound 12, N-(Exo-bicyclo[2.2.1]hept-2-yl)-1-(n-pentyl)-5-phenyl-4,5-dihydro-(1H)-pyrazole-3-carboxamide] | 39.8 | 39.8 | 79.4 | – |
| CCCCCN1N=C(C(=O)NC23CC4CC(CC(C4)C2)C3)CC1c1ccccc1 (stereo not drawn) [Compound 27, N-(Adamantyl)-1-(n-pentyl)-5-phenyl-4,5-dihydro-(1H)-pyrazole-3-carboxamide] | 12.6 | 7.94 | 15.8 | – |
| CCCCCN1N=C(C(=O)NC(C)(C)c2ccccc2)CC1c1ccccc1 (stereo not drawn) [Compound 28, N-(1-Phenyl-1-methyl-ethyl)-1-(n-pentyl)-5-phenyl-4,5-dihydro-(1H)-pyrazole-3-carboxamide] | 7.94 | 100 | 6.31 | – |
| CCCCCN1N=C(C(=O)NC(C)(C)c2ccccc2)CC1c1ccccn1 (stereo not drawn) [Compound 32, N-(1-Phenyl-1-methyl-ethyl)-1-(n-pentyl)-5-(pyrid-2-yl)-4,5-dihydro-(1H)-pyrazole-3-carboxamide] | 39.8 | 10 | 7.94 | – |
| CCCCCN1N=C(C(=O)N[C@H]2C[C@H]3CC[C@]2(C)C3(C)C)CC1c1ccccc1F (stereo partly drawn) [Compound 101, N-[endo-(1R,2S,4R)-1,7,7-trimethylbicyclo[2.2.1]hept-2-yl]-1-(n-pentyl)-5-(2-fluorophenyl)-4,5-dihydro-(1H)-pyrazole-3-carboxamide] | 6.31 | 7.94 | 6.31 | – |
| CCCCN1N=C(C(=O)NC(C)(C)c2ccccc2)CC1c1ccccc1 (stereo not drawn) [Compound 102, N-(1-phenyl-1-methyl-ethyl)-1-(n-butyl)-5-phenyl-4,5-dihydro-(1H)-pyrazole-3-carboxamide] | 100 | 39.8 | 39.8 | – |
| CCCCN1N=C(C(=O)N[C@H]2C[C@H]3CC[C@]2(C)C3(C)C)CC1c1ccccc1 (stereo partly drawn) [Compound 103, N-[endo-(1R,2S,4R)-1,7,7-trimethylbicyclo[2.2.1]hept-2-yl]-1-(n-butyl)-5-phenyl-4,5-dihydro-(1H)-pyrazole-3-carboxamide] | 31.6 | 25.1 | 79.4 | – |
| CCCCCN1N=C(C(=O)N[C@H]2C[C@H]3CC[C@]2(C)C3(C)C)CC1c1ccccc1 (stereo partly drawn) [Compound 104, N-[endo-(1R,2S,4R)-1,7,7-trimethylbicyclo[2.2.1]hept-2-yl]-1-(n-pentyl)-5-phenyl-4,5-dihydro-(1H)-pyrazole-3-carboxamide] | 3.16 | 25.1 | 6.31 | – |
| CCCCCN1N=C(C(=O)NC(C)(C)c2ccc(F)cc2)CC1c1ccccc1 (stereo not drawn) [Compound 105, N-(1-(4-fluorophenyl)-1-methyl-ethyl)-1-(n-pentyl)-5-phenyl-4,5-dihydro-(1H)-pyrazole-3-carboxamide] | 1.58 | 126 | 15.8 | – |
| CC(C)(NC(=O)C1=NN(CC2CCCCC2)C(c2ccccc2)C1)c1ccc(F)cc1 (stereo not drawn) [Compound 108, N-[1-(4-fluorophenyl)-1-methyl-ethyl]-1-cyclohexylmethyl-5-phenyl-4,5-dihydro-(1H)-pyrazole-3-carboxamide] | 15.8 | 31.6 | 25.1 | – |
| CC(C)CN1N=C(C(=O)N[C@H]2C[C@H]3CC[C@]2(C)C3(C)C)CC1c1ccccc1 (stereo partly drawn) [Compound 110, N-[endo-(1R,2S,4R)-1,7,7-trimethylbicyclo[2.2.1]hept-2-yl]-1-isobutyl-5-phenyl-4,5-dihydro-(1H)-pyrazole-3-carboxamide] | 316 | 50.1 | 50.1 | – |
